# Laboratory results: PMC6632053, “Incorporation of Putative Helix-Breaking Amino Acids in the Design of Novel Stapled Peptides: Exploring Biophysical and Cellular Permeability Properties” (Molecules, 2019)
# Where two headings read alike, the source gives them in different places. Bridge positions count the residues as written; N and C are the ends. Square brackets hold non-standard residues; d marks the D form. Peptide text beside a SMILES is read from it. Lys(N3) = [N-]=[N+]=NCCCC[C@H](N)C(=O)O; R8 = C=CCCCCCC[C@@](C)(N)C(=O)O; Cba = N[C@@H](CC1CCC1)C(=O)O; S5 = C=CCCC[C@](C)(N)C(=O)O; βAla = NCCC(=O)O
# Columns and labels:
# [1] = system: p53 responsive β-lactamase reporter in HCT116 cells; assay: p53 beta-lactamase reporter gene cellular functional assay; type: cell-based; details: p53 reporter assay, HCT116, read-out: Cellular (µM), cellular activity (EC50)
# Description: HCT116 cells were stably transfected with a p53 responsive β-lactamase reporter and were seeded into a 384-well plate at a density of 8000 cells per well. Cells were maintained in McCoy’s 5A Medium with 10% fetal bovine serum (FBS), Blasticidin, and Penicillin/Streptomycin. The cells were incubated overnight, followed by removal of cell growth media and replacement with Opti-MEM either containing 0% FBS or 10% FBS. […] The final working concentration of DMSO was 0.5%. β-lactamase activity was detected using the ToxBLAzer Dual Screen (Invitrogen), as per the manufacturer’s instructions. Measurements were made using the Envision multiplate reader (Perkin–Elmer).
# human Mdm2 1–125 = molecular target: T1, human Mdm2 1–125 (Homo sapiens, UniProt Q00987); assay: Mdm2 binding assay (competitive fluorescence anisotropy/polarization); details: competitive fluorescence polarization, read-out: Mdm2 (nM), Mdm2 binding (Kd)
# T1 construct: GST (N); His6 (internal); TEV cleavage site ENLYFQG (internal); made in house; host or cells: Escherichia coli BL21 (DE3) Rosetta T1R
# Description: The TEV (tobacco etch virus) cleavage site was changed from ENLYFQS to ENLYFQG to give a fusion protein with the following sequence:
# Titrations were carried out with the concentration of Mdm2 held constant at 250 nM and the labeled peptide at 50 nM. The competing molecules were then titrated against the complex of the FAM-labeled peptide and protein. Apparent Kd values were determined by fitting the experimental data to the equations shown below:(2) r=r0+(rb−r0)×2(d^2−3e)cos(θ/3)−9/3Kd1+2(d^2−3e)cos(θ/3)−dd=Kd1+Kd2+[L]st+[L]t−[P]te=([L]t−[P]t)Kd1+([L]st−[P]t)Kd2+Kd1Kd2f=−Kd1Kd2[P]tθ=arcos[−2d^3+9de−27f/2(d^2−3e)^3] where [L]st and [L]t denote labeled ligand and total unlabeled ligand input concentrations, respectively. Kd2 is the dissociation constant of the interaction between the unlabeled ligand and the protein. In all competition experiments, it was assumed that [P]t > [L]st, otherwise considerable amounts of free labeled ligand would always be present and would interfere with measurements. Kd1 is the apparent Kd for the labeled peptide used and was experimentally determined as described in the previous paragraph. The FAM-labeled peptide was dissolved in dimethyl sulfoxide (DMSO) at 1 mM and diluted into the experimental buffer. Readings were carried out with an Envision Multilabel Reader (PerkinElmer). Experiments were carried out in PBS (2.7 mM KCl, 137mM NaCl, 10 mM Na2HPO4, and 2 mM KH2PO4 (pH 7.4)) and 0.1% Tween 20 buffer. All titrations were carried out in triplicate. Curve-fitting was carried out using Prism 4.0 (GraphPad). […] Negative control titrations of the ligands under investigation were also carried out with the fluorescently labeled peptide (in the absence of Mdm2) to ensure no interactions were occurring between the ligands and the FAM-labeled peptide.
# [2] = Circular dichroism (CD) α-helicity; type: physicochemical; details: for Helicity (%): CD of free peptide, 25 °C, 1 mM Hepes pH 7.4, 5% methanol
# Description: A total of 5 µL of the 10 mM stock peptide was mixed with 45 µL of 100% methanol, and dried for 2 h in the SpeedVac concentrator (Thermo Scientific). The dried peptide was reconstituted in a buffer (1 mM Hepes pH 7.4 and 5% methanol) to a concentration of 1 mM. The peptide sample was placed in a quartz cuvette with a path length of 0.2 cm. The peptide concentration was determined by the absorbance of the peptide at […]. The CD spectrum was recorded from 300 to 190 nm using the Chirascan-plus qCD machine (Applied Photophysics, Surrey, UK), at 25 °C. All experiments were done in duplicates. The CD spectrum was converted to mean residue ellipticity, before deconvolution and estimation of the secondary structure components of the peptide using the CDNN software (distributed by Applied Photophysics).
# T1 sequence (Q00987 with tags, fused parts or gaps): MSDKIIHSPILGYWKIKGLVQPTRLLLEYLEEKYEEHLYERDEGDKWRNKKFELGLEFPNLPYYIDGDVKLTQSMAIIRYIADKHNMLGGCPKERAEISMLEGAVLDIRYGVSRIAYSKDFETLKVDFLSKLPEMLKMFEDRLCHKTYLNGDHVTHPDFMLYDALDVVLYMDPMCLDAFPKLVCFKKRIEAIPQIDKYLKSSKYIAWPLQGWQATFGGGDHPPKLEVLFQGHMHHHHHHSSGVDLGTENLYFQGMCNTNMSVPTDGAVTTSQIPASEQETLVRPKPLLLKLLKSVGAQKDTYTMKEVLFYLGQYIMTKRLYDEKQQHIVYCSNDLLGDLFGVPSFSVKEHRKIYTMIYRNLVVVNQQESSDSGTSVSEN
SMILES,EC50 ([1]; Table 2),Kd (human Mdm2 1–125; Table 2),α-helicity by CD [2],Helicity (%) ([2]; Table 2),EC50 ([1]; Table 1),Kd (human Mdm2 1–125; Table 1),Helicity (%) ([2]; Table 1)
CC(=O)N[C@@H](CCCCN=[N+]=[N-])C(=O)NCCC(=O)N[C@@H](CC(C)C)C(=O)N[C@H](C(=O)N[C@@H](Cc1ccccc1)C(=O)N[C@]1(C)CCCCCCC=CCCC[C@@](C)(C(=O)N[C@@H](CO)C(=O)N[C@@H](C)C(=O)N[C@@H](C)C(N)=O)NC(=O)[C@H](CC2CCC2)NC(=O)[C@H](CCC(N)=O)NC(=O)[C@H](C)N(C)C(=O)[C@H](Cc2c[nH]c3ccccc23)NC(=O)[C@H](Cc2ccc(O)cc2)NC(=O)[C@H](CCC(=O)O)NC1=O)[C@@H](C)O [A8(N-methyl L-Ala)],> 50 µM,671 nM,< 30%,16.9%,–,–,–
CC(=O)N[C@@H](CC(C)C)C(=O)N[C@H](C(=O)N[C@@H](Cc1ccccc1)C(=O)N[C@]1(C)CCCCCCC=CCCC[C@@](C)(C(=O)N[C@@H](CO)C(=O)N[C@H](C)C(=O)N[C@@H](C)C(N)=O)NC(=O)[C@H](CC2CCC2)NC(=O)[C@H](CC(C)C)NC(=O)[C@H](CCC(N)=O)NC(=O)[C@H](Cc2c[nH]c3ccccc23)NC(=O)[C@H](Cc2ccc(O)cc2)NC(=O)[C@H](CCC(=O)O)NC1=O)[C@@H](C)O [A13(D-Ala)],–,–,–,–,0.6 µM,17 nM,41.8%
CC(=O)N[C@@H](CCCCN=[N+]=[N-])C(=O)NCCC(=O)N[C@@H](CC(C)C)C(=O)N[C@H](C(=O)N[C@@H](Cc1ccccc1)C(=O)N[C@]1(C)CCCCCCC=CCCC[C@@](C)(C(=O)N[C@@H](CO)C(=O)N(C)[C@@H](C)C(=O)N[C@@H](C)C(N)=O)NC(=O)[C@H](CC2CCC2)NC(=O)[C@H](CCC(N)=O)NC(=O)[C@H](C)NC(=O)[C@H](Cc2c[nH]c3ccccc23)NC(=O)[C@H](Cc2ccc(O)cc2)NC(=O)[C@H](CCC(=O)O)NC1=O)[C@@H](C)O [A13(N-methyl L-Ala)],1.6 µM,10 nM,–,38.6%,–,–,–
CC(=O)N[C@@H](CC(C)C)C(=O)N[C@H](C(=O)N[C@@H](Cc1ccccc1)C(=O)N[C@]1(C)CCCCCCC=CCCC[C@@](C)(C(=O)N[C@@H](CO)C(=O)N[C@@H](C)C(=O)N[C@H](C)C(N)=O)NC(=O)[C@H](CC2CCC2)NC(=O)[C@H](CC(C)C)NC(=O)[C@H](CCC(N)=O)NC(=O)[C@H](Cc2c[nH]c3ccccc23)NC(=O)[C@H](Cc2ccc(O)cc2)NC(=O)[C@H](CCC(=O)O)NC1=O)[C@@H](C)O [A14(D-Ala)],–,–,–,–,0.5 µM,18 nM,34.6%
CC(=O)N[C@@H](CC(C)C)C(=O)N[C@H](C(=O)N[C@@H](Cc1ccccc1)C(=O)N[C@]1(C)CCCCCCC=CCCC[C@@](C)(C(=O)N[C@@H](CO)C(=O)N[C@@H](C)C(=O)N[C@@H](C)C(N)=O)NC(=O)[C@H](CC2CCC2)NC(=O)[C@H](CC(C)C)NC(=O)[C@H](CCC(N)=O)NC(=O)[C@H](Cc2c[nH]c3ccccc23)NC(=O)[C@H](Cc2ccc(O)cc2)NC(=O)[C@@H](CCC(=O)O)NC1=O)[C@@H](C)O [E5(D-Glu)],–,–,–,–,1 µM,32 nM,38.2%
CC(=O)N[C@@H](CC(C)C)C(=O)N[C@H](C(=O)N[C@H](Cc1ccccc1)C(=O)N[C@]1(C)CCCCCCC=CCCC[C@@](C)(C(=O)N[C@@H](CO)C(=O)N[C@@H](C)C(=O)N[C@@H](C)C(N)=O)NC(=O)[C@H](CC2CCC2)NC(=O)[C@H](CC(C)C)NC(=O)[C@H](CCC(N)=O)NC(=O)[C@H](Cc2c[nH]c3ccccc23)NC(=O)[C@H](Cc2ccc(O)cc2)NC(=O)[C@H](CCC(=O)O)NC1=O)[C@@H](C)O [F3(D-Phe)],–,–,–,–,> 50 µM,6480 nM,51.8%
CC(=O)N[C@H](CC(C)C)C(=O)N[C@H](C(=O)N[C@@H](Cc1ccccc1)C(=O)N[C@]1(C)CCCCCCC=CCCC[C@@](C)(C(=O)N[C@@H](CO)C(=O)N[C@@H](C)C(=O)N[C@@H](C)C(N)=O)NC(=O)[C@H](CC2CCC2)NC(=O)[C@H](CC(C)C)NC(=O)[C@H](CCC(N)=O)NC(=O)[C@H](Cc2c[nH]c3ccccc23)NC(=O)[C@H](Cc2ccc(O)cc2)NC(=O)[C@H](CCC(=O)O)NC1=O)[C@@H](C)O [L1(D-Leu)],–,–,–,–,0.6 µM,31 nM,44.1%
"CC(=O)N[C@@H](CCCCN=[N+]=[N-])C(=O)NCCC(=O)NCC(=O)N[C@H](C(=O)N[C@@H](Cc1ccccc1)C(=O)N[C@]1(C)CCCCCCC=CCCC[C@@](C)(C(=O)N[C@@H](CO)C(=O)N[C@@H](C)C(=O)N[C@@H](C)C(N)=O)NC(=O)[C@H](CC2CCC2)NC(=O)[C@H](CCC(N)=O)NC(=O)CNC(=O)[C@H](Cc2c[nH]c3ccccc23)NC(=O)[C@H](Cc2ccc(O)cc2)NC(=O)CNC1=O)[C@@H](C)O [L1G, E5G, A8G] (Ac-[Lys(N3)][βAla]GTF[R8]GYWGQ[Cba][S5]SAA-NH2; staple 6-13)",1.7 µM,49.8 nM,20.4%,20.4%,–,–,–
CC(=O)N[C@@H](CC(C)C)C(=O)N[C@H](C(=O)N[C@@H](Cc1ccccc1)C(=O)N[C@]1(C)CCCCCCC=CCCC[C@@](C)(C(=O)N[C@@H](CO)C(=O)N[C@@H](C)C(=O)N[C@@H](C)C(N)=O)NC(=O)[C@H](CC2CCC2)NC(=O)[C@@H](CC(C)C)NC(=O)[C@H](CCC(N)=O)NC(=O)[C@H](Cc2c[nH]c3ccccc23)NC(=O)[C@H](Cc2ccc(O)cc2)NC(=O)[C@H](CCC(=O)O)NC1=O)[C@@H](C)O [L9(D-Leu)],–,–,–,–,1.1 µM,30 nM,39.0%
CC(=O)N[C@H](CC(C)C)C(=O)N[C@H](C(=O)N[C@@H](Cc1ccccc1)C(=O)NC(C)(C)C(=O)N[C@@H](CCC(=O)O)C(=O)N[C@@H](Cc1ccc(O)cc1)C(=O)N[C@@H](Cc1c[nH]c2ccccc12)C(=O)N[C@@H](CCC(N)=O)C(=O)N[C@@H](CC(C)C)C(=O)N[C@@H](CC1CCC1)C(=O)NC(C)(C)C(=O)N[C@@H](CO)C(=O)N[C@@H](C)C(=O)N[C@@H](C)C(N)=O)[C@@H](C)O [Linear L1(D-Leu)],–,–,–,–,> 50 µM,277 nM,37.2%
CC(=O)N[C@@H](CC(C)C)C(=O)N[C@H](C(=O)N[C@@H](Cc1ccccc1)C(=O)NC(C)(C)C(=O)N[C@@H](CCC(=O)O)C(=O)N[C@@H](Cc1ccc(O)cc1)C(=O)N[C@@H](Cc1c[nH]c2ccccc12)C(=O)N[C@@H](CCC(N)=O)C(=O)N[C@H](CC(C)C)C(=O)N[C@@H](CC1CCC1)C(=O)NC(C)(C)C(=O)N[C@@H](CO)C(=O)N[C@@H](C)C(=O)N[C@@H](C)C(N)=O)[C@@H](C)O [Linear L9(D-Leu)],–,–,–,–,> 50 µM,88 nM,19.7%
CC(=O)N[C@@H](CC(C)C)C(=O)N[C@H](C(=O)N[C@@H](Cc1ccccc1)C(=O)NC(C)(C)C(=O)N[C@@H](CCC(=O)O)C(=O)N[C@@H](Cc1ccc(O)cc1)C(=O)N[C@@H](Cc1c[nH]c2ccccc12)C(=O)N[C@H](CCC(N)=O)C(=O)N[C@@H](CC(C)C)C(=O)N[C@@H](CC1CCC1)C(=O)NC(C)(C)C(=O)N[C@@H](CO)C(=O)N[C@@H](C)C(=O)N[C@@H](C)C(N)=O)[C@@H](C)O [Linear Q8(D-Gln)],–,–,–,–,> 50 µM,119 nM,21.8%
